Test results taken from patent US12274686B2, “Specialized pro-resolving mediators (SPMs) as melanocyte growth promoter and pro-survival factors and uses thereof” (THE UNIVERSITY OF BRITISH COLUMBIA, priority 2021, dated 2025).

Experiments:
[1] = test system: vitiligo patches; assay: Topical treatment of vitiligo patches refractory to topical anti-inflammatory therapies (single subject); format: in vivo, human; details: for change in the size of the white areas: mometasone fumarate 0.1% cream BID (abdominal macule), clobetasol 0.05% cream OD (two patches right hand), 12 months
Procedure: Topical maresin 1 was tested on a person with a 5 year and 3 month history of developing two white patches on the dorsal right hand and one white macule on the right mid abdomen. […] There were no signs of inflammation such as redness, or presence of scales. There were no symptoms such as itchiness or pain. […] On examination, the subject appeared to be well. Complete skin examination was performed. The entire skin appeared to be normal aside from three lesions of depigmentation: (1) a 1.5×1.2 cm white patch on the mid right abdomen; (2) a 1.3×1.0 cm white patch on the dorsum of right third metacarpal head; and (3) a 1.0×0.8 cm sized white macule on the dorsum of right 4th metacarpal head.

[2] = test system: primary human epidermal melanocytes; assay: Melanocyte survival assay in vitro (growth factor supplement withdrawn), CellTiter-Blue viability; format: cell-based; details: for ability to protect melanocytes: physiological distress
Procedure: Human neonatal epidermal melanocytes (HEMn-DP) were purchased from ThermoFisher Scientific™ (C-202-5C). Melanocytes were cultured in full growth medium (Medium 254 supplemented with Human Melanocyte Growth Supplement, both purchased from ThermoFisher Scientific™. Cells were expanded and passaged 3 times before conducting the assay. 4×10^3 melanocytes per well were seeded into 96 well plate and allowed to recover for 4 hours before the treatment was added for each condition in 100 μl final volume. Cells were treated and kept in 37° C., 5% CO2 for 3 days. Viability assay was conducted using CellTiter-Blue Cell Viability Assay Kit™ (Promega™, G8080) and signal was measured using GlowMax™ plate reader (Promega™) after 4 hours at 37° C., 5% CO2. Merasin 1 (Cayman™) was diluted into 1 μg/ml using PBS and added to the culture medium at concentrations ranging from 0 to 1 μg/ml. For survival assays, the procedure was essentially the same as proliferation assay except that melanocytes were kept in M254 medium without human melanocyte growth supplement. The assays were conducted in triplicates.

[3] = test system: B6 mouse canities model; assay: B6 mouse model of canities (spontaneous hair greying) and aging-associated weight gain; format: in vivo, C57BL/J6 mice; details: 800 ng maresin 1 IP three times a week
Source text: To observe aging-associated spontaneous hair greying (canities), C57BL/J6 mice aged 8 weeks were purchased from JAX Labs™ and kept in standard conditions for 8 weeks. The fur color as well as overall appearance and behaviors were monitored daily by visual inspection and by photography. By 6-8 weeks, about 20-40% of the mice would develop spontaneous canities. At the end of observation, central venous blood was collected and used for ELISA analysis using maresin 1 ELISA kit (Caymen Chemicals™) following the manufacturers' recommended protocol with purified maresin 1 serving as the chemical standard.
C57BL/J6 mice from The Jackson Laboratory™, 8 weeks of age were divided into two groups that received intraperitoneal injections of maresin 1 (800 ng in 100 μl saline) or saline alone three times a week for 6 weeks. […] At the end of the experiment, the mice were photographed and weighed.

[4] = test system: skin resident M2 macrophages; assay: Skin resident M1 (CD80+) / M2 (CD163+) macrophages by flow cytometry in B6 mice with or without maresin 1; format: in vivo, C57BL/J6 mice
Procedure: For isolation of macrophages from murine skin: 1 cm×1 cm sized skin samples were cut into small pieces, placed in a solution of PBS containing 1 mg/ml dispase (Roche™) and incubated for 1 hour at 37° C. The samples were then transferred into RPMI containing 1 mg/ml Collagenase IV and 0.1 mg/ml DNAse (Sigma Aldrich™) and incubated for 90 minutes at 37° C. Single cell suspension was prepared by passing through 100 μm strainer. Cells were washed and stained in PBS without Ca^2+ and Mg^2+ supplemented with 1% heat-inactivated FCS. Cell surface staining panel included anti-mouse CD163-BV421™, CD80-Alexa fluor 647™, and CD11b-Percp Cy5.5™ (Biolegend™) for 30 minutes at 4° C. Cells were washed with PBS and analyzed with LSRII™ cell sorter (BD Biosciences™).
Eight week old female C57BL/J6 mice were ordered from The Jackson Laboratory™, and fed a standard diet of Animal Care Facility of Vancouver Coastal Health Research institute (4 mice/cage). For induction of vitiligo, mice were immunized by intradermal injections (ID, starting at Day 0) at the left hock, and repeated at 2-week, using the method described by S. You et al. that efficiently induces melanocyte specific CD8+ T cell responses^(53). […] Immunization response score was recorded at 48 hours after the first immunization by evaluating the redness and swelling (0=none, 1=mild, 2=moderate, 3=severe). […]

[5] = test system: B6 mouse Vitiligo model; assay: B6 mouse model of vitiligo with TRP2 immunization; format: in vivo, C57BL/J6 mice
Source text: ([…], Deming Regression). * p<0.05 (two tailed t test).
Eight week old female C57BL/J6 mice were ordered from The Jackson Laboratory™, and fed a standard diet of Animal Care Facility of Vancouver Coastal Health Research institute (4 mice/cage). For induction of vitiligo, mice were immunized by intradermal injections (ID, starting at Day 0) at the left hock, and repeated at 2-week, using the method described by S. You et al. that efficiently induces melanocyte specific CD8+ T cell responses^(53). The immunogen consisted of TRP2-180 (50 μg) peptide mixed with LPS (5 μg) and CpG ODN 1826 (5 μg) in 50 μL of PBS solution per mouse per injection. Immunization response score was recorded at 48 hours after the first immunization by evaluating the redness and swelling (0=none, 1=mild, 2=moderate, 3=severe). For assessing macrophage M1 and M2 populations, the TRP-immunized and non-immunized mice were anaesthetized 48 hours after immunization for skin sampling at the immunization site and used for cell isolation as described above.
For assessing the effects of maresin 1 treatment, C57BL/J6 mice were randomly assigned to the sham injection control group (200 μl saline IP, n=20) and the Maresin 1 injection group (800 ng in 200 μl saline IP, n=20). […] Mice were monitored 5 times per week and evaluated using a Depigmentation Area Scoring Template (0-5) (FIG. 5C). […]

[6] = cultured human epidermal melanocytes

`C[C@H]1C[C@H]2[C@@H]3CCC4=CC(=O)C=C[C@]4(C)[C@@]3(F)[C@@H](O)C[C@]2(C)[C@@]1(O)C(=O)CCl` [clobetasol, reference compound] was tested, and the “change in the size of the white areas” value [1] was “did not notice any change”.
For `CCCCC[C@H](O)/C=C/C=C\C=C\C=C\[C@@H](O)[C@@H](O)CCCC(=O)O` [lipoxin A4, reference compound], the “pro-survival effects on the melanocytes in vitro” value ([2]; SPMs 0 to 300 ng/ml, cultured human epidermal melanocytes) was “significantly decreased melanocyte survival” and the “ability to protect melanocytes” value [2, 6] was “accelerated melanocyte depletion”.
For `CCCCC[C@@H](O)[C@H](O)/C=C/C=C/C=C\C=C\[C@@H](O)CCCC(=O)O` [lipoxin B4, 5S,14R,15S-trihydroxy-6E,8Z,10E,12E-eicosatetraenoic acid], the “ability to protect melanocytes” value [2, 6] was “show ability to protect melanocytes”.
In the case of `CC/C=C\C/C=C\C[C@H](O)\C=C/C=C/C=C/[C@H](O)C/C=C\CCC(=O)O` [maresin 1, 7R, 14S-dihydroxy-4Z, 8E, 10E, 12Z, 16Z, 19Z-docosahexaenoic acid], the “ability to protect melanocytes” value [2, 6] is reported as “show ability to protect melanocytes”, the “melanocyte depletion (surviving melanocytes) after growth factor supplement withdrawal” value ([2]; maresin 1 10 to 300 ng/ml, three days, p<0.01) is reported as “significant reduction of melanocyte depletion” and the “melanocyte depletion caused by growth factor withdrawal” value ([2]; three days in culture, no growth factor supplement) is reported as “markedly reducing melanocyte depletion”. For the same molecule, the repigmentation ([1]; 0.01% maresin 1 in ethanol twice daily, by the end of three months) was “significant repigmentation”, the “decrease of lesion area, third lesion” value ([1]; 0.01% maresin 1 in ethanol twice daily, three months, 1.0×0.8 cm macule right 4th metacarpal head) was 11.1% and the “decrease of lesion area, second lesion” value ([1]; 0.01% maresin 1 in ethanol twice daily, three months, 1.3×1.0 cm patch right third metacarpal head) was 10.5%. For the same molecule, the “decrease of lesion area, first lesion” value ([1]; 0.01% maresin 1 in ethanol twice daily, three months, 1.5×1.2 cm patch mid right abdomen) was 13.6%, the “adverse events such as irritation, itchiness or redness” value ([1]; 0.01% maresin 1 in ethanol, topical twice daily) was “did no notice any adverse events” and the “decrease of the areas of the three depigmented lesions (overall)” value ([1]; ethanol solution containing 0.01% maresin 1 twice daily, three months) was 11.7%. For the same molecule, the canities development ([3]; saline control 15% by 15 weeks of age, p<0.0125 Log Rank) was “completely blocked”, the “aging associated weight gain” value ([3]; saline control 17.7%, p=0.0423) was 14.2% and the “post-immunization M2/M1 ratio at the TRP2 immunization site” value ([4]; maresin 1 800 ng/mouse IP pretreatment, skin 48 hours after TRP2 immunization, CD163+/CD80+ cells) was “restoring the post-immunization M2/M1 ratio to a level above the pre-immunization state”. The “M2/M1 ratio in the skin of B6 mice” value ([4]; maresin 1 treatment, increase from 0.44) was 5.34, the “vitiligo development (average depigmentation score at immunization site)” value ([5]; maresin 1 800 ng/mouse IP three times per week for 8 weeks vs saline (sham)) was “significant reduction of vitiligo development” and the “immunization response (peak score, erythema + edema)” value ([5]; maresin 1 800 ng/mouse IP, 48 hours after TRP2 immunization, vs saline) was “significantly reduced the immunization response”.
With `CC/C=C\C/C=C\C[C@H](O)[C@H](O)/C=C/C=C/C=C\C/C=C\CCC(=O)O` [maresin 2, 13R,14S-dihydroxy-4Z,7Z,9E,11E,16Z,19Z-docosahexaenoic acid] the “ability to protect melanocytes” value [2, 6] was “show ability to protect melanocytes”.
In the case of `CC/C=C\C[C@H](O)\C=C/C=C/C=C/[C@H](O)C/C=C\C/C=C\CCC(=O)O` [protectin D1, 10R,17S-dihydroxy-4Z,7Z,11E,13E,15Z,19Z-docosahexaenoic acid], the “ability to protect melanocytes” value [2, 6] is reported as “show ability to protect melanocytes”.
For `CC/C=C\C[C@H](O)[C@H](O)/C=C/C=C/C=C\C=C\[C@@H](O)C/C=C\CCC(=O)O` [resolvin D2, 7S,16R,17S-trihydroxy-4Z,8E,10Z,12E,14E,19Z-docosahexaenoic acid], the “ability to protect melanocytes” value [2, 6] was “show ability to protect melanocytes”.
In the case of `CC[C@@H](O)/C=C/C=C\C[C@@H](O)/C=C/C=C/C=C\[C@@H](O)CCCC(=O)O` [resolvin E1, 5S,12R,18R-trihydroxy-6Z,8E,10E,14Z,16E-eicosapentaenoic acid], the “ability to protect melanocytes” value [2, 6] is reported as “show ability to protect melanocytes”.
“mometasone fumarate [reference compound]” was tested, and the “change in the size of the white areas” value [1] was “did not notice any change”.
